Several values for one entry are separate records, joined by “and”; a condition that tells them apart may be missing. Identical values can stand only once. Like-named read-outs stand apart in the source and are kept apart here.
Columns and labels:
opiate receptor = molecular target: T1, opiate receptor (Rattus norvegicus, UniProt P33535); assay: biochemical; assay type: binding
T1 construct: from tissue

[1] = in vivo
[2] = mouse jump test (physical dependence); assay type: in vivo; settings: after 100 mg/kg naloxone on day 4; 30 min
Method: (§1) Analgesic activity was measured using the tail-flick assay of D'Amour, F. D., et al, J. Pharmacol. Exper. (1941) 72: 74, or by the writhing assay described by Blumberg, H., et al, Proc. Soc. Exp. Biol. Med. (1965) 118: 763. The antagonist activity, considered a measure of nonaddictiveness, was measured by the opiate receptor assay of Pert, C., et al, Mol. Pharmacol. (1974) 10: 868. Antagonist activity was also measured using the induced Straub tail method as described by De Graw, J., et al, J. Med Chem (1978) 21: 415; and Blumberg, H., et al, Advances in Chemical Psychopharmacology, Vol. 8, M. Braudy, et al, ed. Raven Press, New York, N.Y. (1973), 33-43. A direct and simple assay measuring physical dependence is the mouse jump test described by Saelens, J., et al, Arch Int Pharmacodyn (1971) 190: 213.
Physical dependence, a much more direct measure of non-addictive properties than antagonist activity, was evaluated using the mouse jump test. Mice are injected intraperitoneally 5 times on day 1 with increasing doses of test compound ranging from 8-100 mg/kg body weight. On days 2 and 3 the mice are given 100 mg/kg 4 times. On day 4 all mice receive 100 mg/kg of the antagonist naloxone in a single dose. The mice are then caged for 30 min, and a record is made of the number jumping during this time.

[3] = induced Straub tail method (antagonist activity); settings: for ED50: read-out: Antagonism ED50, Straub Tail
[4] = as disclosed in U.S. Pat. No. 4,218,454; cited from earlier work
[5] = writhing assay (analgesia); assay type: in vivo; settings: compared with morphine
Method: as §1

[6] = +NaCl, read-out: Opiate Receptor Inhibition 1C50
[7] = -NaCl, read-out: Opiate Receptor Inhibition 1C50

T1 sequence (P33535 whole entry): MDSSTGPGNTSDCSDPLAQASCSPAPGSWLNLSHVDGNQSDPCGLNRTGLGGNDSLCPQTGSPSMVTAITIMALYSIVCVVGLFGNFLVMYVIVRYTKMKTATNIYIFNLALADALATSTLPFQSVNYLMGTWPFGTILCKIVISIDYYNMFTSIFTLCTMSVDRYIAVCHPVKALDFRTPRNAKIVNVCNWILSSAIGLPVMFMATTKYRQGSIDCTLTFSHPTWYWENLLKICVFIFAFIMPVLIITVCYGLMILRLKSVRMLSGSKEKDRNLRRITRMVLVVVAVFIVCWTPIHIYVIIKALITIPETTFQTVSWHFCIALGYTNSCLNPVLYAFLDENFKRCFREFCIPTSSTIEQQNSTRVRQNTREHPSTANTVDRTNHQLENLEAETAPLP

**Q.** For `CC(C1CC1)N1CC[C@]23c4c5ccc(O)c4O[C@H]2[C@@H](O)C=C[C@H]3[C@H]1C5` (single isomer, unassigned; diastereomer a) [N--α-methylcyclopropyl-methyl normorphine (A)] [N-methylcyclopropylmethyl normorphine (diastereomer A)], which “times the affinity of N-sec-butylnormorphine in the opiate assay” value (opiate receptor) is on record?
**A.** about 122 times

**Q.** And the “times the affinity of morphine in the opiate assay” value (opiate receptor)?
**A.** over 43 times

**Q.** What about the “times more tightly bound than the higher melting form” value (opiate receptor; competitive binding against 3H-dihydromorphine, A versus B) of the same compound?
**A.** 30 times

**Q.** And the “Antagonism ED50, Tail Flick” value (in vivo)?
**A.** > 213 µmol/kg

**Q.** And the “activity relative to the diastereomeric mixture and to diastereomer B” value [1]?
**A.** much higher activity

**Q.** What about the “oral activity compared with subcutaneous morphine in the tail flick assay” value [1] of the same compound?
**A.** approximated an equivalent dose of morphine administered subcutaneously

**Q.** What about the duration of effectiveness ([1]; po) of the same compound?
**A.** 4 h

**Q.** And the onset of action ([1]; po)?
**A.** 5 to 10 min

**Q.** What about the “times as potent as morphine in tail flick analgesia, oral” value ([1]; po) of the same compound?
**A.** 6.2 times

**Q.** What about the “activity of lower melting diastereomer A relative to higher melting form” value ([1]; sc) of the same compound?
**A.** about 25 times

**Q.** And the “times as potent as morphine in the tail flick assay” value ([1]; sc)?
**A.** 5.2 times

**Q.** What does the source list for `CN1CC[C@]23c4c5ccc(O)c4O[C@H]2[C@@H](O)C=C[C@H]3[C@H]1C5` [morphine]?
**A.** Antagonism ED50, Tail Flick (reversal of analgesia induced by morphine in the tail flick assay): 2 µmol/kg; time after which activity declines substantially [1]: 3 h; number of mice jumping [2]: 10/10; Antagonism ED50, Straub Tail ([3]; Straub tail method): 1 µmol/kg

**Q.** For `CC(C1CC1)N1CC[C@]23c4c5ccc(O)c4O[C@H]2[C@@H](O)C=C[C@H]3[C@H]1C5` (single isomer, unassigned; diastereomer b) [N--α-methylcyclopropyl-methyl normorphine (B)] [N-methylcyclopropylmethyl normorphine (diastereomer B)], which “potency relative to morphine in the tail flick assay (in words)” value ([1]; sc) is on record?
**A.** only one-fifth as potent as morphine

**Q.** For `CC[C@@H](C)N1CC[C@]23c4c5ccc(O)c4O[C@H]2[C@@H](O)C=C[C@H]3[C@H]1C5` [N--sec-butyl normorphine (R), reference compound], which IC50 (opiate receptor; [6]) is on record?
**A.** 110 nM

**Q.** What about the IC50 (opiate receptor; [7]) of the same compound?
**A.** 60 nM

**Q.** And the ED50 [3]?
**A.** 16.2 µmol/kg

**Q.** And the addiction liability [4]?
**A.** little or no addiction liability

**Q.** For `CC(C1CC1)N1CC[C@]23c4c5ccc(O)c4O[C@H]2[C@@H](O)C=C[C@H]3[C@H]1C5` (single isomer, unassigned; diastereomer a) [N-methylcyclopropylmethyl normorphine (diastereomer A)], which IC50 (opiate receptor; [7]) is on record?
**A.** 0.23 nM

**Q.** For `CC(C1CC1)N1CC[C@]23c4c5ccc(O)c4O[C@H]2[C@@H](O)C=C[C@H]3[C@H]1C5` (mixture of isomers) [N-α-Methylcyclopropylmethylnormorphine], which IC50 (opiate receptor; [6]) is on record?
**A.** 6 nM

**Q.** What about the IC50 (opiate receptor; [7]) of the same compound?
**A.** 3 nM

**Q.** And the “potency relative to morphine in the tail flick assay” value ([1]; sc)?
**A.** about 85%

**Q.** And the “antagonist potency relative to nalorphine” value ([3]; in vivo)?
**A.** about one-fourth as potent as nalorphine

**Q.** And the ED50 [3]?
**A.** 4.5 µmol/kg

**Q.** What about the addiction liability [4] of the same compound?
**A.** little or no addiction liability

**Q.** What about the “potency relative to morphine in the writhing assay” value [5] of the same compound?
**A.** more than twice as potent

**Q.** With `C=CCN1CC[C@]23c4c5ccc(O)c4O[C@H]2[C@@H](O)C=C[C@H]3[C@H]1C5` [nalorphine, reference compound] as the compound, how does the IC50 (opiate receptor; Opiate Receptor Inhibition 1C50) read?
**A.** 2 nM and 6 nM

**Q.** And the “Antagonism ED50, Tail Flick” value (in vivo)?
**A.** 2.04 µmol/kg

**Q.** And the addiction liability [4]?
**A.** little or no addiction liability

**Q.** Which IC50 (opiate receptor; [6]) does the source give for `CC[C@H](C)N1CC[C@]23c4c5ccc(O)c4O[C@H]2[C@@H](O)C=C[C@H]3[C@H]1C5` [N--sec-butyl normorphine (S), reference compound] here?
**A.** 62 nM

**Q.** And the IC50 (opiate receptor; [7])?
**A.** 28 nM

**Q.** What about the ED50 [3] of the same compound?
**A.** 7.4 µmol/kg

**Q.** What about the addiction liability [4] of the same compound?
**A.** little or no addiction liability

**Q.** With `CC(C1CC1)N1CC[C@]23c4c5ccc(O)c4O[C@H]2[C@@H](O)C=C[C@H]3[C@H]1C5` (single isomer, unassigned; diastereomer b) [N-methylcyclopropylmethyl normorphine (diastereomer B)] as the compound, how does the IC50 (opiate receptor; [7]) read?
**A.** 7 nM

Reference: patent publication US4749706A (priority 1986, dated 1988)
